Earlier results on four compounds are cited in patent US20170112865A1, “TREATMENT FOR MELANOMA” (The Board of Regents of the University of Texas System, priority 2014, published 2017).

For data set [1], the system named is BRAFV600E/k mutant advanced or malignant melanoma.
Data set [2] concerns BRAF V600E mutation-positive advanced melanoma. The conditions noted are these: human, in vivo.
For data set [3] the following is noted: in vivo.
For data set [4] the following is noted: in vivo. This is another data set of the same source.
For a further data set, the system named is melanoma. The conditions noted are these: at 5 years.

With `CC(=O)Nc1cccc(-n2c(=O)n(C3CC3)c(=O)c3c(Nc4ccc(I)cc4F)n(C)c(=O)c(C)c32)c1` [Trametinib], in data set [1] (Trametinib arm), the “Grade 3 adverse effect: hypertension” value was 12% and the “Grade 3 adverse effect: rash” value was 7%. In addition, the “most frequent adverse events” value in data set [1] (in vivo) is recorded as “skin rash, diarrhea, edema, hypertension, fatigue”.
On to `CC(C)(C)c1nc(-c2cccc(NS(=O)(=O)c3c(F)cccc3F)c2F)c(-c2ccnc(N)n2)s1` [dabrafinib, Dabrafenib], for which the “time within which resistance occurs” value in data set [2] was 6 to 7 months.
As to `C[C@H]1O[C@@H](O[C@H]2[C@@H](O)C[C@H](O[C@H]3[C@@H](O)C[C@H](O[C@H]4CC[C@@]5(C)[C@H](CC[C@@H]6[C@@H]5C[C@@H](O)[C@]5(C)[C@@H](C7=CC(=O)OC7)CC[C@]65O)C4)O[C@@H]3C)O[C@@H]2C)C[C@H](O)[C@@H]1O` [digoxin, Digoxin], in data set [3], the half-life result is “about 36 hours”. The “plasma concentration at which adverse effects are rare” value in data set [4] is less than 0.8 ng/mL.
For interferon, in the data set on melanoma, the increase in survival is 3%.
